Test results from US20150284342A1, “BIS(FLUOROALKYL)-1,4-BENZODIAZEPINONE COMPOUNDS” (BRISTOL-MYERS SQUIBB COMPANY, priority 2011, published 2015).

Key:
[1] = tested on: human ovarian teratocarcinoma xenograft PA-1; assay: Human tumor xenograft model in mice: PA-1 (combination with carboplatin); type: in vivo
[2] = tested on: ALL-SIL T-cell lymphoblastic leukemia; assay: Human tumor xenograft model in mice: ALL-SIL (combination with dasatinib); type: in vivo; settings: for Tumor Growth Delay / Tumor Growth Delay (LCK): target tumor size 1000 mg
[3] = tested on: human T-ALL leukemia xenografts HPB-ALL; assay: Human tumor xenograft model in mice: HPB-ALL (combination with dexamethasone); type: in vivo; settings: for Tumor Growth Delay / Tumor Growth Delay (LCK): target tumor size 3000 mg
[4] = High Throughput (HT) Metabolic Stability Panel, mouse liver microsomes; settings: mouse, microsomes, 10 min, 0.5 µM, pH 7.4
Description: (§1) Each compound was tested in duplicate.

Notch 1 = assay: Notch-CBF1 Transactivation Assay (Notch 1); type: cell-based; settings: HeLa cells, luciferase, rounded to 2 digits, read-out: Notch 1 (IC50)
Source text: (§2) Table 12 denotes respective DNA quantity for the transfections.
(§3) Duplicates were used for each sample.

[5] = tested on: MDA-MB-468 Human Breast Carcinoma; assay: Human tumor xenograft model in mice: MDA-MB-468 (combination with paclitaxel); type: in vivo; settings: for Tumor Growth Delay / Tumor Growth Delay (LCK): target tumor size 500 mg
human tumor xenografts = assay: Human Tumor Xenograft Models in Mice (various tumors); type: in vivo; settings: for Antitumor Activity (% TGI): PO, QD × 15, 10 day-on-2 day-off, 5-10 mg/kg/adm
[6] = tested on: TALL1 Human T-cell acute lymphoblastic leukemia; assay: Human tumor xenograft model in mice: TALL1; type: in vivo
[7] = High Throughput (HT) Metabolic Stability Panel, human liver microsomes; settings: human, microsomes, 10 min, 0.5 µM, pH 7.4
Description: as §1

[8] = tested on: human breast carcinoma cell line MDA-MB-157; assay: Human tumor xenograft model in mice: MDA-MB-157; type: in vivo
Notch 3 = assay: Notch-CBF1 Transactivation Assay (Notch 3); type: cell-based; settings: HeLa cells, luciferase, rounded to 2 digits, read-out: Notch 3 (IC50)
Source text: as §2, §3

[9] = tested on: ER receptor positive human breast carcinoma xenograft MCF7; assay: Human tumor xenograft model in mice: MCF7 (combination with Tamoxifen); type: in vivo; settings: for Tumor Growth Inhibition TGI: target tumor size 500 mg
[10] = Dexamethasone 3.75 mg/kg IP, QD x 14
[11] = Example 1 1 mg/kg PO, QD x 21, target tumor size 500 mg
[12] = Example 1 3.75 mg/kg PO, QD x 3, weekly x 7
[13] = Example 1 […] PO, QD x 3, weekly x 7
[14] = 7.5-10 mg/kg, oral, QD × 15, 10 Day-on-2 Day-off
[15] = Example 1 3.75 mg/kg PO, QD ×3, weekly ×3
[16] = Example 1 3.75 mg/kg PO, QD x 3, weekly x 3
[17] = Example 1 […] PO, QD x 3, weekly x 3

N.N.O=C([O-])C1(C(=O)[O-])CCC1.[Pt+2] [Carboplatin, carboplatin, reference compound]
antitumor effect (LCK) ([1]; carboplatin weekly, 90 mg/kg/adm): 2.1 LCK

Cc1nc(Nc2ncc(C(=O)Nc3c(C)cccc3Cl)s2)cc(N2CCN(CCO)CC2)n1 [Dasatinib, dasatinib, reference compound]
CR (%) ([2]; Dasatinib 10 mg/kg PO, QD x 49): 0%
PR (%) ([2]; Dasatinib 10 mg/kg PO, QD x 49): 0%
Tumor Growth Delay ([2]; Dasatinib 10 mg/kg PO, QD x 49): 30.2 days
Tumor Growth Delay (LCK) ([2]; Dasatinib 10 mg/kg PO, QD x 49): 1.7 LCK
antitumor effect (LCK) ([2]; dasatinib alone, 10 mg/kg/adm, QD×49, PO): 1.7 LCK

C[C@@H]1C[C@H]2[C@@H]3CCC4=CC(=O)C=C[C@]4(C)[C@@]3(F)[C@@H](O)C[C@]2(C)[C@@]1(O)C(=O)CO [Dexamethasone, dexamethasone, reference compound]
CR (%) [3, 10]: 0%
PR (%) [3, 10]: 0%
Tumor Growth Delay [3, 10]: 5.6 days
Tumor Growth Delay (LCK) [3, 10]: 0.6 LCK
Tumor Growth Delay ([3]; Dexamethasone […] IP, QD x 14): 5.8 days
Tumor Growth Delay (LCK) ([3]; Dexamethasone […] IP, QD x 14): 0.7 LCK
antitumor efficacy (LCK) ([3]; dexamethasone as a single agent at its MTD of 7.5 mpk): 0.7 LCK

CN1C(=O)[C@@H](NC(=O)[C@H](CCC(F)(F)F)[C@H](CCC(F)(F)F)C(N)=O)N=C(c2ccccc2)c2ccccc21 [Example 1, (2R,3S)—N-((3S)-1-Methyl-2-oxo-5-phenyl-2,3-dihydro-1H-1,4-benzodiazepin-3-yl)-2,3-bis(3,3,3-trifluoropropyl)succinamide]
0.5 μM MsLM (% Remaining) [4]: 91%
CR (%) ([1]; Example 1 1 mg/kg PO, QD x 21): 0%
Cure (%) ([1]; Example 1 1 mg/kg PO, QD x 21): 0%
PR (%) ([1]; Example 1 1 mg/kg PO, QD x 21): 0%
Tumor Growth Delay [1, 11]: 4 days
Tumor Growth Delay (LCK) [1, 11]: 0.2 LCK
antitumor effect (LCK) ([1]; Example 1 as a single agent, 1 mg/kg/adm): 0.2 LCK
IC50 (Notch 1): 1.6 nM
CR (%) [5, 12]: 0%
PR (%) [5, 12]: 0%
Tumor Growth Delay [5, 12]: 7.8 days
Tumor Growth Delay (LCK) [5, 12]: 0.5 LCK
Tumor Growth Delay [5, 13]: 21.2 days
Tumor Growth Delay (LCK) [5, 13]: 1.4 LCK
Antitumor Activity (% TGI) ([5]; MDA-MB468, TN breast cancer, single agent, PO, QD × 15, 10 day-on-2 day-off, 5-10 mg/kg/adm): 91 % TGI
Antitumor Activity MDA-MB-468 (% TGI) ([5]; single agent, 7.5-10 mg/kg, oral, QD × 15, 10 Day-on-2 Day-off): 78 % TGI
Antitumor Activity (% TGI) (human tumor xenografts; BT-474, HER2+ breast cancer): 96 % TGI
Antitumor Activity (% TGI) (human tumor xenografts; Calu-6, Non small cell lung cancer): 81 % TGI
Antitumor Activity (% TGI) (human tumor xenografts; G292, osteogenic sarcoma): 75 % TGI
Antitumor Activity (% TGI) (human tumor xenografts; HCT116, colon cancer): 75 % TGI
Antitumor Activity (% TGI) (human tumor xenografts; MCF7i, estrogen-independent breast cancer): 63 % TGI
Antitumor Activity (% TGI) (human tumor xenografts; Pat-21/Abx R, TN breast cancer (abx R)): 73 % TGI
Antitumor Activity (% TGI) (human tumor xenografts; Pat-24, pancreatic cancer): 111 % TGI
Antitumor Activity (% TGI) (human tumor xenografts; Pat-26, pancreatic cancer): 93 % TGI
Antitumor Activity (% TGI) (human tumor xenografts; Pat-34, ovarian cancer): 89 % TGI
Antitumor Activity (% TGI) (human tumor xenografts; Pat-50, ovarian cancer): 91 % TGI
Antitumor Activity (% TGI) (human tumor xenografts; SK-N-AS, neuroblastoma): 67 % TGI
Antitumor Activity (% TGI) (human tumor xenografts; U-87, glioblastoma multiforme (GBM)): 82 % TGI
antitumor activity (human tumor xenografts; oral administration (PO)): showed antitumor activity
human cancer xenografts in which significant antitumor activity was demonstrated (human tumor xenografts; xenografts grown in mice): 16
Antitumor Activity TALL1 (LCK) [6, 14]: >4.7 LCK
Antitumor Activity (% TGI) ([6]; TALL1, T-Cell acute lymphoblastic leukemia, PO, QD × 15, 10 day-on-2 day-off, 5-10 mg/kg/adm): 112 % TGI
antitumor activity ([6]; intravenous route (IV), FIG. 6: TALL1, 5 mg/kg/adm, QD×3, IV): exhibited antitumor activity
0.5 μM HLM (% Remaining) [7]: 97%
CR (%) [2, 12]: 0%
PR (%) [2, 12]: 0%
Tumor Growth Delay [2, 12]: 8.7 days
Tumor Growth Delay (LCK) [2, 12]: 0.5 LCK
Tumor Growth Delay [2, 13]: 1.9 days
Tumor Growth Delay (LCK) [2, 13]: 0.1 LCK
complete response (CR) ([2]; single agent): none of the single agent produced CR
Antitumor Activity MDA-MB-157 (% TGI) [8, 14]: 89 % TGI
Antitumor Activity (% TGI) ([8]; MDA-MB157, TN breast cancer, PO, QD × 15, 10 day-on-2 day-off, 5-10 mg/kg/adm): 81 % TGI
IC50 (Notch 3): 3.4 nM
CR (%) [9, 15]: 0%
PR (%) [9, 15]: 0%
Tumor Growth Inhibition TGI [9, 15]: 43%
Tumor Growth Inhibition TGI ([9]; Example 1 […] PO, QD ×3, weekly ×3): 58%
Antitumor Activity (% TGI) ([9]; MCF7, estrogen-dependent breast cancer, single agent, PO, QD × 15, 10 day-on-2 day-off, 5-10 mg/kg/adm): 73 % TGI
CR or PR ([9]; single agent): no CR or PR
CR (%) [3, 16]: 0%
PR (%) [3, 16]: 0%
Tumor Growth Delay [3, 16]: 7.8 days
Tumor Growth Delay (LCK) [3, 16]: 0.9 LCK
Tumor Growth Delay [3, 17]: 9.5 days
Tumor Growth Delay (LCK) [3, 17]: 1.1 LCK
antitumor efficacy (LCK) ([3]; Example 1 as a single agent at 7.5 mpk): 1.1 LCK
